Key:
[1] = test system: NC/Nga mice (model for delayed-type hypersensitivity); test: Test Example 5: inhibition effect of delayed-type hypersensitivity, NC/Nga mice; type: in vivo
Method: The same test mice and test foodstuff as in Test Example 4 were used to conduct a test on the inhibition effect of delayed-type hypersensitivity. The NC/Nga mice, as described above, are known as a model for atopic dermatitis, but can also be used as a model for delayed-type hypersensitivity. The administration of test foodstuff to the test mice was continued until the end of the test. Hapten sensitization was conducted 1 week after the commencement of the foodstuff administration, hapten challenge was conducted 1 week thereafter upon measuring the thickening of the auricle portion prior to the challenge, and measurement of the thickening of the auricle portion 24 hours later was conducted once again. Hapten sensitization was conducted by applying picryl chloride 7% by weight ethanol solution 100 μl to the abdomen, and the hapten challenge was conducted by applying picryl chloride 1% by weight olive oil solution 10 μl to both faces of each auricle portion. The anti-inflammation effect was measured by seeking the edema ratio and tumidity from the aforementioned test results. […]

[2] = test system: NC/Nga mice (models for atopic dermatitis); test: Test Example 4: anti-atopic dermatitis test, NC/Nga mice, picryl chloride hapten challenge; type: in vivo
Method: Next, test was conducted on the anti-atopic dermatitis effect of the yeast cell wall fraction. As a test specimen, NC/Nga mice (5.5 weeks old) were preliminarily raised for 2 weeks with solid foodstuff (CE-2, manufactured by Clea Japan, Inc.) and, after adaptation to the experimental environment, were used upon being separated into groups of 7 mice each. […] Hapten sensitization was conducted 1 week after the commencement of test foodstuff administration, and the initial (first) hapten challenge was conducted a week thereafter, and a hapten challenge was conducted for each elapsed week thereafter, and the final (eighth) hapten challenge was conducted […] after the commencement of test foodstuff administration. […] In the aforementioned anti-atopic dermatitis test, the clinical score and total plasma IgE level were measured with time. […] The clinical score was comprehensively evaluated in […] evaluation phases of score (0)none, (1)mild, (2)moderate, (3)severe, regarding the 5 symptoms of acomia of scalp; bleeding and erosion of scalp; bleeding and erosion of auricle portion; corpulence, edema, and purpura of auricle portion; and deformation and disappearance of auricle porition. […]

[3] = after the completion of administration of the test foodstuff

SMILES: OC[C@H]1O[C@H](OC[C@H]2O[C@H](O[C@]3(CO)O[C@H](CO)[C@@H](O)[C@@H]3O)[C@H](O)[C@@H](O)[C@@H]2O)[C@H](O)[C@@H](O)[C@H]1O [Raffinose]
- Final Weight, Mean [1, 3]: 24.2 g
- Ingestion, Mean ([1]; daily foodstuff ingestion amount, delayed-type hypersensitivity test): 4.2 g/day
- Final Weight, Mean [2, 3]: 25.9 g
- Ingestion, Mean ([2]; daily foodstuff ingestion amount, anti-atopic dermatitis test): 4.05 g/day
